Where a SMILES comes first, the peptide text is derived from it. Bridges are numbered along the chain shown (N, C = ends). [ ]: non-standard residue; d: D form. R8 = C=CCCCCCC[C@@](C)(N)C(=O)O; S5 = C=CCCC[C@](C)(N)C(=O)O
Experiments:
[1] = Circular dichroism, percentage of helicity (K2D3); type: physicochemical; settings: CD, room temperature, water, 100 μM peptide; estimated with K2D3
Text: The conformation of helix 2 (^16TAEELKKFKLKLLSV^30) bound to ASC^PYD (Fig. 1A) was used as the starting structure for the peptide-protein interaction modeling. Following I,I + 7 stapling scheme, we inserted a hydrocarbon staple across positions 5 and 12 along the peptide and then introduced mutations to produce a set of stapled peptides. Two variants of the template peptide were designed – a short version containing 13 residues (ms_ASC^PYD #6) and a long version containing 15 residues (ms_ASC^PYD #1–5) with two additional residues at the N-terminus (Table 1). These two additional residues were inserted to increase the length of the peptide, thus potentially enabling sufficient conformational flexibility for the region involving the critical Arg3 to remain helical. A similar approach was taken to introduce the staple in the ms_NLRP3^PYD peptide. As determined from Circular Dichroism (CD) spectra, inserting the I,I + 7 staple had the intended effect of increasing helicity of the peptides (Fig. 3). […] Percentage of helicity was much higher for ASC^PYD stapled peptides #5 and #6, 95% and 70% respectively at 100 μM peptide concentration. Percentage of helicity for the peptides were estimated from the web server K2D3[36] using CD data.
Figure 3 Circular dichroism (CD) spectra of (A) NLRP3^PYD and (B) ASC^PYD peptides to measure secondary structures.

NLRP3 inflammasome = assay: Western blot of processed IL-1β p17 and Casp-1 p20 in THP-1 supernatants and of pro-forms in lysates; type: cell-based, human; settings: THP-1, LPS/nigericin, Fig. 8D
Protocol: THP-1 cells and monocytes were incubated with NLRP3^PYD (12.5–25–50 μM), ASC^PYD #5 (12.5-25-50-100 μM) or ASC^PYD #6 (12.5-25-50-100 μM) for the indicated durations. Cells were then washed once with PBS and primed with E. coli LPS (0.1 μg/ml, Invivogen) for 4 h followed by stimulation with nigericin (10 μM) for an additional 1 h or ATP ([…]) for an additional 30 min. The cell culture supernatants were then collected and centrifuged at 500 × g to remove cells and cellular debris.
Cell-free supernatants were mixed 1:4 to cold acetone and incubated at −20 °C for at least 1 h. The mixtures were then centrifuged at 15,000 rpm for 15 min at 4 °C. Supernatants were discarded and pellets re-suspended in 1X Laemmli buffer. Total cell lysates were prepared using RIPA buffer containing 150 mM NaCl, 0.5% sodium deoxycholate, 0.1% SDS, 50 mM Tris-HCl pH 8.0 and 1% Triton-X-100. Protein concentrations were determined by BCA assay (Thermo Scientific, cat. 23227) following the manufacturer’s instructions. Lysates were reconstituted in Laemmli buffer (20–50 μg), boiled and separated by SDS–PAGE, and transferred onto PVDF membranes. […]

ASC = assay: Imaging of ASC speck oligomerization in THP-1 cells; type: cell-based, human; settings: THP-1, LPS 0.1 μg/ml 4 h, nigericin 10 μM 1 h; 100 μM peptide; Fig. 8E
Protocol: Figure 8 ASC peptides effectively block IL-1β and IL-18 release and ASC oligomerization in human blood monocytes. (A) IL-1β and IL-18 were measured in cell-free supernatants from THP-1 cells incubated with FAM-ASC^PYD #5 or FAM-ASC^PYD #6 (12.5, 25,50 and 100 μM) for 24 h and primed with LPS (0.1 μg/ml, 4 h) followed by stimulation with nigericin (10 μM, 1 h), as assessed by ELISA. (B) Production of IL-1β and IL-18 from human blood monocytes stimulated or not with LPS (0.1 μg/ml, 4 h) alone or in a combination of ATP (5 mM, 30 min) in the presence of FAM-ASC^PYD #5 or FAM-ASC^PYD #6 (25, 50 and 100 μM) peptides. (C,D) Western blot analysis of processed IL-1β p17 (C) and Casp-1 p20 (D) in cell-free supernatants of THP-1 cells primed with LPS (0.1 μg/ml, 4 h), followed by stimulation with nigericin (10 μM, 1 h) in the presence of FAM-ASC^PYD #5 (25, 50 and 100 μM), FAM-ASC^PYD #6 (50 and 100 μM) peptides, or DMSO vehicle. Expression of pro-IL-1β p35 and pro-Casp-1 p50 was assessed in cell lysates. GAPDH was used as loading control. (E) Imaging of ASC speck oligomerization in THP-1 cells treated with LPS (0.1 μg/ml, 4 h) and nigericin (10 μM, 1 h) in the absence or presence of FAM-ASC^PYD #5 or FAM-ASC^PYD #6 (100 μM) peptides. The number of ASC specks were counted manually in at least 100 cells, and the proportion of cells containing a speck was shown. […]

Structure (SMILES) | Percentage of helicity [1] [%] | Caspase-1 activation (caspase-1 p20 in supernatants) (NLRP3 inflammasome) | ASC speck formation (ASC)
CC[C@H](C)[C@@H]1NC(=O)[C@H](CCCCN)NC(=O)[C@H](C)NC(=O)[C@H](CC(C)C)NC(=O)[C@H](CCCCN)NC(=O)[C@](C)(NC(=O)[C@H](C)NC(=O)[C@H](CCCNC(=N)N)NC(=O)[C@H](C)NC(=O)[C@@H](NC(C)=O)[C@@H](C)O)CCCCCCC=CCCC[C@@](C)(C(=O)N[C@@H](CCC(=O)O)C(=O)N[C@@H](CO)C(=O)N[C@H](C(N)=O)C(C)C)NC(=O)[C@H](CCCCN)NC1=O [ms_ASC^PYD #5] (Ac-TARA[R8]KLAKIK[S5]ESV-NH2; staple 5-12) | 95 | reduced caspase-1 activation in a dose-dependent manner | significantly inhibited speck formation
CC[C@H](C)[C@@H]1NC(=O)[C@H](CCCCN)NC(=O)[C@H](C)NC(=O)[C@H](CCCCN)NC(=O)[C@H](CCCCN)NC(=O)[C@](C)(NC(=O)[C@H](C)NC(=O)[C@H](CCCNC(=N)N)NC(C)=O)CCCCCCC=CCCC[C@@](C)(C(=O)N[C@@H](CCC(=O)O)C(=O)N[C@@H](CO)C(=O)N[C@H](C(N)=O)C(C)C)NC(=O)[C@H](CCCCN)NC1=O [ms_ASC^PYD #6] (Ac-RA[R8]KKAKIK[S5]ESV-NH2; staple 3-10) | 70 | reduced caspase-1 activation in a dose-dependent manner | significantly inhibited speck formation
